Read-outs that look alike come from different tables or passages of the source.
Experiments:
AChE = AChE (Homo sapiens, UniProt P22303); assay: biochemical
Protocol: (§1) 3.5. Acetylcholinesterase Activity Assay Protocol
(§2) The inhibition of AChE and BChE was determined using a method described earlier.
(§3) Briefly, the stock solutions (1mg/mL) of test analogues were prepared using DMSO. The working solutions (1–100μg/mL) were prepared using serial dilutions (a serial dilution means a series of diluted solutions, e.g., 0.1mg/mL, 0.2mg/mL and so on; the solutions contained 5% DMSO and 95% water). The various concentrations of test compounds (10μL) were pre-incubated with sodium phosphate buffer (0.1 M; pH 8.0; 150μL) and AChE (0.1 U/mL; 20μL) for 15 min at 25°C. The reaction was initiated via the addition of DTNB (1 mM; 10μL) and […] (1 mM; 10 μL). The mixture of reaction was mixed using a cyclomixer and incubated for […]
(§4) wavelength against the blank reading containing 10μL DMSO instead of the test compound (the solution contained 5% DMSO and 95% water). Utilizing the formula given in Equation (1), the percentage of inhibition was computed, and the IC50 was determined under the positive control […]
(§5) % Inhibition = (Absorbance of control—Absorbance of compound)/Absorbance of control × 100 […]
(§6) which was calculated by constructing a non-linear regression graph between the percentages of inhibition vs. concentration, using Graph Pad prism software (version 5.3)(accessed on 5 August […]

BuChE = BuChE (Homo sapiens, UniProt P06276); assay: biochemical
Sequence of BuChE (P06276 29-602): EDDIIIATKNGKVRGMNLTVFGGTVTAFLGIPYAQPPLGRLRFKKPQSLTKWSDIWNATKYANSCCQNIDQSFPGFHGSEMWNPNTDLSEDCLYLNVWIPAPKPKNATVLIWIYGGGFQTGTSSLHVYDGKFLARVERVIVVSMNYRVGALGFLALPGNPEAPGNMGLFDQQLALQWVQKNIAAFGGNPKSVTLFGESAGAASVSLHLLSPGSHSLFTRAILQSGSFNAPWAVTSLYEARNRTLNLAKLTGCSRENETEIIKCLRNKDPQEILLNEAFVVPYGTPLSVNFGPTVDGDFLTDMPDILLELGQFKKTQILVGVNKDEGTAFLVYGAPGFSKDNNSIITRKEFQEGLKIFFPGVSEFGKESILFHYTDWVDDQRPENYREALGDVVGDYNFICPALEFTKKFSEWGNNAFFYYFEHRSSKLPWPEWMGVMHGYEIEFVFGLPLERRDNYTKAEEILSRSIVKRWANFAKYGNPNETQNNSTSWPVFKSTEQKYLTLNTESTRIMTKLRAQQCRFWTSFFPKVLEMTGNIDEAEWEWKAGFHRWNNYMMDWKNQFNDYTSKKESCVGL
Protocol: as §1, §2, §3, §4, §5, §6

[1] = in vitro enzyme inhibition, 25°C, pH 8.0, read-out: AChE IC50 (µM ± SEM)
[2] = in vitro enzyme inhibition, read-out: BuChE IC50 (µM ± SEM)

Sequence of AChE (P22303 32-614): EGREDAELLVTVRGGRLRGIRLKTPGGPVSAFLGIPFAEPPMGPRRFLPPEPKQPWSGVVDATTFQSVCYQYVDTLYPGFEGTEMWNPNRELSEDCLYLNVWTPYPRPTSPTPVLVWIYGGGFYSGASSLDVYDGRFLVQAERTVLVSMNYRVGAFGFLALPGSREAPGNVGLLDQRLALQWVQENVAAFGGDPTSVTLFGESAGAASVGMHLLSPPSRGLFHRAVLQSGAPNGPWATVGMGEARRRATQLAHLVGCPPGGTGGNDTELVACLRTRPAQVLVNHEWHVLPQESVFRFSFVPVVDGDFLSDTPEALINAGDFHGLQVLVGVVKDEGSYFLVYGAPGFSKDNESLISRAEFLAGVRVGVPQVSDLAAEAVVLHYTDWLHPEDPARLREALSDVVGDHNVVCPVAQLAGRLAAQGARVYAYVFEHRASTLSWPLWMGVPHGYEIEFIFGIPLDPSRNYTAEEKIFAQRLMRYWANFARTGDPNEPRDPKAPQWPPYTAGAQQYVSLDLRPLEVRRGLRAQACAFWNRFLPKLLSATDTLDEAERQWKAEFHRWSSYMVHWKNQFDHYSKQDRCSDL

Structure (SMILES) | IC50 (AChE; [1]) [µM] | IC50 (BuChE; [2]) [µM] | IC50 (AChE) [µM] | IC50 (BuChE) [µM] | IC50 (AChE; read-out: IC50 for AchE (abstract)) [µM]
FC(F)(F)c1ccc(Nc2nnc(Cc3cc4cc(Cl)ccc4[nH]3)s2)cc1Cl [Compound 14] | 0.4 ± 0.05 | 2.6 ± 0.1 | – | – | –
O=[N+]([O-])c1ccc(Br)c(Nc2nnc(Cc3cc4cc(Cl)ccc4[nH]3)s2)c1 [Compound 16] | – | 34.3 ± 0.6 | – | – | –
Cc1cccc(Nc2nnc(Cc3cc4cc(Cl)ccc4[nH]3)s2)c1C [Compound 6] | 8.7 ± 0.2 | 10.9 ± 0.1 | – | – | –
O=[N+]([O-])c1cccc([N+](=O)[O-])c1Nc1nnc(Cc2cc3cc(Cl)ccc3[nH]2)s1 [Compound 4] | – | – | 2.8 ± 0.1 | 5.4 ± 0.1 | –
COc1c(Nc2nnc(Cc3cc4cc(Cl)ccc4[nH]3)s2)cccc1[N+](=O)[O-] [Compound 12] | 14.7 ± 0.3 | 19.2 ± 0.3 | – | – | –
COc1cc(Nc2nnc(Cc3cc4cc(Cl)ccc4[nH]3)s2)ccc1[N+](=O)[O-] [Compound 13] | 19.1 ± 0.3 | 25.3 ± 0.4 | – | – | –
O=[N+]([O-])c1cc(Br)cc(Nc2nnc(Cc3cc4cc(Cl)ccc4[nH]3)s2)c1 [Compound 11] | 12.3 ± 0.2 | 18.4 ± 0.3 | – | – | –
Fc1ccccc1Nc1nnc(Cc2cc3cc(Cl)ccc3[nH]2)s1 [Compound 9] | 0.35 ± 0.05 | 0.5 ± 0.05 | – | – | –
O=[N+]([O-])c1cc(Nc2nnc(Cc3cc4cc(Cl)ccc4[nH]3)s2)ccc1Br [Compound 15] | 22.2 ± 0.4 | 32.1 ± 0.1 | – | – | –
Cc1ccc(Nc2nnc(Cc3cc4cc(Cl)ccc4[nH]3)s2)cc1C [Compound 5] | 5.8 ± 0.2 | 9.3 ± 0.1 | – | – | –
Fc1ccc(Nc2nnc(Cc3cc4cc(Cl)ccc4[nH]3)s2)cc1 [Compound 8] | – | 0.2 ± 0.1 | – | – | 0.15 ± 0.05
Fc1cccc(Nc2nnc(Cc3cc4cc(Cl)ccc4[nH]3)s2)c1 [Compound 10] | 1.1 ± 0.1 | 2.8 ± 0.1 | – | – | –
